According to patent publication US9889093B2, “Application of andrographolide in the preparation of a pharmaceutical for treatment of inflammatory bowel disease, andrographolide enteric targeting micropellet, and method for preparation thereof” (TASLY PHARMACEUTICAL GROUP CO., LTD., priority 2013, dated 2018):
≈ marks a conversion by molar mass, not a printed value. Marks after values point to notes of the source that are not given here.

Columns and labels:
zebra fish = assay: Exploration of concentration in zebra fish (toxicity and death); format: in vivo; conditions: 0.1 to 500 μg/mL in fish farm water, 30 zebra fishes per concentration
Method: Fish farm water of wild-type AB strain zebra fish Crohn's disease model (1 L reverse osmosis water was added with 200 mg instant sea salt with a conductivity of […], pH value of 6.9˜7.2 and hardness of 53.7˜71.6 mg/L CaCO3) was added with the andrographolide in the concentrations of 0 μg/mL, 0.1 μg/mL, 1 μg/mL, 10 μg/mL, 100 μg/mL and 500 μg/mL. At each concentration, 30 zebra fishes were treated, during which death number of the zebra fishes was counted daily and the dead fishes were removed in time. After treatment, the death number of the zebra fishes in each group was analyzed statistically to draw the optimum concentration-effect curve by using JMP software and calculate MNLC. […] As a result, the following four concentrations were selected for efficacy evaluation in Crohn's disease in this study: 50 μg/mL, 100 μg/mL, 250 μg/mL and 500 μg/mL.

[1] = Solubility of the drug in DMSO and fish farm water; format: physicochemical
[2] = tested on: zebra fish Crohn's disease model; assay: Zebra fish Crohn's disease model (TNBS), efficacy; format: in vivo; conditions: for Inflammation regression ratio: based on neutrophil infiltration; for Number of Neutrophil: intestinal tissue, x ± SE, n = 10; for Ratio with the blank control group: neutrophil number
[3] = tested on: TNBS-induced colitis mice; assay: TNBS-induced UC (colitis) mouse model; format: in vivo; conditions: for Body weight / Colon weight: oral twice daily; for Body weight / Colon weight / Colon scores / Colon indices / Decrease rate of colon specific weight: 7 days; for Colon scores: histopathological score 0-4; for Colon indices: percentage of colon weight to body weight; for Decrease rate of colon specific weight: vs model control group
Method: 5% (w/v) TNBS solution was diluted with double-distilled water and mixed with 50% (v/v) ethanol in equal volume to have 1.5% (w/v) TNBS solution. In the model control group, the mice were anesthetized with 1 wt % pentobarbital solution at a dose of 0.05 ml/10 g body weight. After being anesthetized, the mice were administrated with 1.5% (w/v) TNBS solution at a dose of 0.1 ml/mouse by gently inserting stomach perfusion device to about 3 cm depth via anus and arriving at the colon, and the IBD was induced. In the saline group, the saline was gently injected into the colon at a dose of 0.1 ml/mouse. In the normal control group, 50% (v/v) ethanol was gently injected into the colon at a dose of 0.1 ml mouse.
After one week adaptive feeding, all animals were randomly divided into 5 groups according to body weight, 10 mice in one group: the normal control group, the model control group, the andrographolide low-dose group (20 mg/kg/d), the andrographolide high-dose group (40 mg/kg/d) and the positive control group (Sulfasalazine group, 300 mg/kg/d). Two hours after making model, the animals in each treating groups were orally administrated twice daily with the andrographolide and once daily in the positive control group. After successive administration for 7 days, the abdomen was opened 24 hours after the last administration to observe adhesion degree between the colon and other organs. The colon was separated and weighed.
1. Body weight: after making model, body weight was measured every day to observe the change in the animals.
2. Evaluation of inflammation: the abdomen was opened 24 hours after the last administration to observe adhesion degree between the colon and other organs. Every segment of the colon was taken out and weighed to calculate the percentage of the colon weight to body weight, as the colon index. The formula was presented as follows: Decrease rate of colon specific weight=(colon index of the model control group−colon index of the treatment group)/colon index of the model control group×100%
3. Histopathological examination: a part of the colon was taken to prepare the pathological section, and the standard for score was as follows: • 0 score, no inflammatory symptoms; • 1 score, low-grade inflammation with no structure change; • 2 score, low-grade leukocyte infiltration; • 3 score, high-grade leukocyte infiltration, high vascular density, crypt extension, thickened colon wall and superficial ulcer • 4 score, high-grade leukocyte infiltrating exceeding to mucous layer, crypt extension, decrease of goblet cell, high vascular density, thickened colon wall and extensive ulcer
SPSS11.5 software was used for analysis and the data were expressed as x±S. Variance analysis was used for comparison of significant difference among groups.

[4] = tested on: zebra fish Crohn's disease model; assay: Zebra fish Crohn's disease model (TNBS), efficacy; format: in vivo; conditions: 48 hours
Method: Crohn's disease model (mainly inflammation) was built by using TNBS (2,4,6-trinitrobenzenesulfonic acid), and 30 zebra fishes were randomly divided into each treating group. […] Image analysis software was used to analyze the pictures. Moreover, the intestinal mucosal thickness, intestinal lumen diameter and intestinal lumen area were observed carefully under a microscope and the intestinal lumen diameter and intestinal lumen area were analyzed quantitatively. Therapeutical efficacy of the tested drug in zebra fish Crohn's disease was calculated in accordance with the intestinal lumen area in each group. The calculation formula was presented as follows: Therapeutical efficacy (%)=[1−(the administration group−the blank control group)/(the model group−the blank control group)]×100%
Statistically analyzed results were expressed as mean±SE. Variance analysis was used for comparison among many groups, and Dunnett's T test for comparison between two groups.

[5] = andrographolide high-dose 40 mg/kg/d
[6] = andrographolide low-dose 20 mg/kg/d

C=C1CC[C@@H]2[C@](C)(CO)[C@H](O)CC[C@@]2(C)[C@@H]1C/C=C1/C(=O)OC[C@H]1O [Andrographolide]
Toxicity and death in zebra fish (zebra fish): no toxicity and death were found | solubility ([1]; DMSO, organic solvent or mixture): ~250 mg/mL (≈ 713 mM) | Concentration at which the drug began to precipitate ([1]; fish farm water): ≥ 500 µg/mL | Intestinal lumen area reduced by (therapeutical efficacy) ([2]; andrographolide 500 μg/ml, 48 hours): 65±10.1% | Inflammation regression ratio ([2]; andrographolide 50 μg/ml): 45 ± 3.7 % | Inflammation regression ratio ([2]; andrographolide 50 μg/ml, listed as andrographolide): 45±3.74% | Inflammation regression ratio ([2]; andrographolide 100 μg/ml): 46 ± 3.7 % | Inflammation regression ratio ([2]; andrographolide 100 μg/ml, listed as andrographolide): 46±3.74% | Inflammation regression ratio ([2]; andrographolide 250 μg/ml): 63 ± 4.4 % | Inflammation regression ratio ([2]; andrographolide 250 μg/ml, listed as andrographolide): 63±4.42% | Inflammation regression ratio ([2]; andrographolide 500 μg/ml): 79 ± 9.0 % | Inflammation regression ratio ([2]; andrographolide 500 μg/ml, listed as andrographolide): 79±8.98% | Number of Neutrophil ([2]; andrographolide 50 μg/ml): 18 ± 0.54 | Number of Neutrophil ([2]; andrographolide 100 μg/ml): 17 ± 0.54 | Number of Neutrophil ([2]; andrographolide 250 μg/ml): 15 ± 0.64 | Number of Neutrophil ([2]; andrographolide 500 μg/ml): 13 ± 1.30 | Ratio with the blank control group ([2]; andrographolide 50 μg/ml): 1.97 ± 0.06 | Ratio with the blank control group ([2]; andrographolide 100 μg/ml): 1.96 ± 0.06 | Ratio with the blank control group ([2]; andrographolide 250 μg/ml): 1.67 ± 0.07 | Ratio with the blank control group ([2]; andrographolide 500 μg/ml): 1.40 ± 0.15 | Body weight increase compared with the model control group ([3]; FIG. 1, treated groups): increased faster than that in the model control group | Body weight [3, 5]: 20.95 ± 1.09 g | Colon weight [3, 5]: 0.29 ± 0.09 g | Body weight [3, 6]: 19.95 ± 2.05 g | Colon weight [3, 6]: 0.43 ± 0.12 g | Colon scores [3, 5]: 1.8** | Colon scores [3, 6]: 3.2 | Colon indices [3, 5]: 1.38 ± 0.46 | Colon indices [3, 6]: 2.24 ± 0.90 | Intestinal elasticity compared with the model control group ([3]; treated groups, after 7 days): higher than that in the model control group | Decrease rate of colon specific weight [3, 5]: 58.96% | Decrease rate of colon specific weight [3, 6]: 33.20% | Intestinal lumen area reduced by (therapeutical efficacy) ([4]; andrographolide 50 μg/ml): 38±12.9% | Intestinal lumen area reduced by (therapeutical efficacy) ([4]; andrographolide 100 μg/ml): 49±8.9% | Intestinal lumen area reduced by (therapeutical efficacy) ([4]; andrographolide 250 μg/ml): 65±14.7%
